# From US20220204476A1, “RNA VIRUS INHIBITOR COMPOUNDS AND USES THEREOF” (The Governors of the University of Alberta, priority 2020, published 2022)
# How the values were obtained:
# [1] = system: SARS-CoV-2; assay: SARS-CoV-2 in vitro plaque reduction assay in Vero E6 cells; assay type: cell-based; conditions: Severe acute respiratory syndrome coronavirus 2, Vero C1008, MOI 0.0001 pfu/cell, plaques counted after 48 h, >5 μM = did not reduce plaque numbers by half at 10 μM, read-out: SARS-CoV-2 Antiviral EC50
# [2] = molecular target: SARS-CoV-2 3CLP (Severe acute respiratory syndrome coronavirus 2, UniProt P0DTD1); assay: SARS-CoV-2 3CLP inhibition, FRET-based cleavage assay; assay type: biochemical; conditions: 80 nM SARS-CoV-2 3CLP, 100 μM substrate, 37° C., 10 min incubation, pH 7.8; read-out: 3CL Protease IC50
# [3] = Cytotoxicity, CellTiter-Glo luminescent cell viability assay; conditions: human (A549) and green monkey (Vero E6)
SMILES,EC50 [1] [nM],IC50 [2] [nM],CC50 at 24 h [3] [nM]
"CCOc1cccc2[nH]c(C(=O)N[C@@H](CC(C)C)C(=O)N[C@H](C#N)C[C@@H]3CCCNC3=O)cc12 [Compound 69, N-[(2S)-1-({(1S)-1-cyano-2-[(3S)-2-oxopiperidin-3-yl]ethyl}amino)-4-methyl-1-oxopentan-2-yl]-4-ethoxy-1H-indole-2-carboxamide]",4800,24,> 200000
"COc1cccc2[nH]c(C(=O)N[C@@H](CC(C)C)C(=O)N[C@@H](C[C@@H]3CCCNC3=O)C(=O)COC(=O)c3c(C(F)(F)F)cc(C)nc3C)cc12 [Compound 18, (3S)-3-{[N-(4-methoxy-1H-indole-2-carbonyl)-L-leucyl]amino}-2-oxo-4-[(3S)-2-oxopiperidin-3-yl]butyl 2,6-dimethyl-4-(trifluoromethyl)pyridine-3-carboxylate]",460,14,> 200000
"CC(C)C[C@H](NC(=O)c1cc2c3c(ccc2[nH]1)CCO3)C(=O)N[C@H](C#N)C[C@@H]1CCCNC1=O [Compound 71, N-[(2S)-1-({(1S)-1-cyano-2-[(3S)-2-oxopiperidin-3-yl]ethyl}amino)-4-methyl-1-oxopentan-2-yl]-3,6-dihydro-2H-furo[2,3-e]indole-7-carboxamide]",> 5000,49,> 200000
"COc1cccc2[nH]c(C(=O)N[C@@H](CC(C)C)C(=O)N[C@@H](C[C@@H]3CCCNC3=O)C(=O)COC(=O)c3c(C(F)(F)F)cccc3C(F)(F)F)cc12 [Compound 6, (3S)-3-{[N-(4-methoxy-1H-indole-2-carbonyl)-L-leucyl]amino}-2-oxo-4-[(3S)-2-oxopiperidin-3-yl]butyl 2,6-bis(trifluoromethyl)benzoate]",210,1,> 200000
"COc1cccc2[nH]c(C(=O)N[C@@H](CC(C)C)C(=O)N[C@H](C#N)C[C@@H]3CCCNC3=O)cc12 [Compound 34, N-[(2S)-1-({(1S)-1-cyano-2-[(3S)-2-oxopiperidin-3-yl]ethyl}amino)-4-methyl-1-oxopentan-2-yl]-4-methoxy-1H-indole-2-carboxamide]",2700,13,> 200000
"COc1cccc2[nH]c(C(=O)N[C@@H](CC(C)C)C(=O)N[C@@H](C[C@@H]3CCCNC3=O)C(=O)COC(=O)C(C)(C)C(F)(F)F)cc12 [Compound 13, (3S)-3-{[N-(4-methoxy-1H-indole-2-carbonyl)-L-leucyl]amino}-2-oxo-4-[(3S)-2-oxopiperidin-3-yl]butyl 3,3,3-trifluoro-2,2-dimethylpropanoate]",> 5000,20,> 200000
"CC(C)C[C@H](NC(=O)c1cc2c(OC(F)(F)F)cccc2[nH]1)C(=O)N[C@H](C#N)C[C@@H]1CCCNC1=O [Compound 40, N-[(2S)-1-({(1S)-1-cyano-2-[(3S)-2-oxopiperidin-3-yl]ethyl}amino)-4-methyl-1-oxopentan-2-yl]-4-(trifluoromethoxy)-1H-indole-2-carboxamide]",2600,14,> 50000
